Organism: Rattus norvegicus
Test: Open TG-GATES - Regimen: Single
Type: toxicity, organism-based, Sprague-Dawley
Design: regimen Single, gender Male, age 6 weeks
Settings: in vivo, po, 0 mg/kg, route gavage, dose level Control; for APTT / Bas / Eos / Fbg / Hb / Ht / Lym / MCH / MCHC / MCV / Mono / Neu / PT / Plat / RBC / Ret / WBC: tissue Blood; for KIDNEY_L / KIDNEY_R / KIDNEY_TOTAL: tissue Kidney; for LIVER: tissue Liver; for A/G / ALP / ALT / AST / BUN / CRE / Ca / Cl / DBIL / GLC / IP / K / LDH / Na / PL / RALB / TBIL / TC / TG / TP / gamma-GTP: tissue Plasma

Question: Which results are given for CN(C)[C@@H]1C(O)=C(C(N)=O)C(=O)[C@@]2(O)C(O)=C3C(=O)c4c(O)cccc4[C@@](C)(O)[C@H]3C[C@@H]12 [TETRACYCLINE]?
Answer: TERMINAL_BW (3 h): 187 g; APTT (3 h): 16.4 s; Bas (3 h): 0%; Eos (3 h): 0.6%; Fbg (3 h): 206.2 mg/dL; Hb (3 h): 13.1 g/dL; Ht (3 h): 39.4%; Lym (3 h): 78.4%; MCH (3 h): 22 pg; MCHC (3 h): 33.1%; MCV (3 h): 66.3 fL; Mono (3 h): 8.6%; Neu (3 h): 12.8%; PT (3 h): 12.1 s; Plat (3 h): 105.5 x10_4/uL; RBC (3 h): 595.2 x10_4/ul; Ret (3 h): 11%; WBC (3 h): 95.1 x10_2/uL; KIDNEY_L (3 h): 0.9 g; KIDNEY_R (3 h): 0.9 g; KIDNEY_TOTAL (3 h): 1.8 g; LIVER (3 h): 9 g; A/G (3 h): 2.2; ALP (3 h): 813 IU/L; ALT (3 h): 35.8 IU/L; AST (3 h): 70.8 IU/L; BUN (3 h): 12.6 mg/dL; CRE (3 h): 0.5 mg/dL; Ca (3 h): 11.1 mg/dL; Cl (3 h): 103.6 meq/L; DBIL (3 h): 0.02 mg/dL; GLC (3 h): 187.8 mg/dL; IP (3 h): 10.2 mg/dL; K (3 h): 5.2 meq/L; LDH (3 h): 87.6 IU/L; Na (3 h): 137.6 meq/L; PL (3 h): 143.2 mg/dL; RALB (3 h): 3.7 g/dL; TBIL (3 h): 0.4 mg/dL; TC (3 h): 84 mg/dL; TG (3 h): 42.4 mg/dL; TP (3 h): 5.4 g/dL; gamma-GTP (3 h): 1.4 IU/L; TERMINAL_BW (6 h): 181.3 g; APTT (6 h): 16.7 s; Bas (6 h): 0%; Eos (6 h): 0.8%; Fbg (6 h): 200.2 mg/dL; Hb (6 h): 13.1 g/dL; Ht (6 h): 39.1%; Lym (6 h): 81.6%; MCH (6 h): 22 pg; MCHC (6 h): 33.4%; MCV (6 h): 65.9 fL; Mono (6 h): 5.2%; Neu (6 h): 13%; PT (6 h): 12.3 s; Plat (6 h): 101.8 x10_4/uL; RBC (6 h): 593.8 x10_4/ul; Ret (6 h): 10.7%; WBC (6 h): 118.1 x10_2/uL; KIDNEY_L (6 h): 0.8 g; KIDNEY_R (6 h): 0.8 g; KIDNEY_TOTAL (6 h): 1.7 g; LIVER (6 h): 8.3 g; A/G (6 h): 2.2; ALP (6 h): 900.4 IU/L; ALT (6 h): 36.2 IU/L; AST (6 h): 68.8 IU/L; BUN (6 h): 9 mg/dL; CRE (6 h): 0.4 mg/dL; Ca (6 h): 10.6 mg/dL; Cl (6 h): 105.2 meq/L; DBIL (6 h): 0.018 mg/dL; GLC (6 h): 180 mg/dL; IP (6 h): 10.5 mg/dL; K (6 h): 5.2 meq/L; LDH (6 h): 77.6 IU/L; Na (6 h): 136.4 meq/L; PL (6 h): 130.4 mg/dL; RALB (6 h): 3.7 g/dL; TBIL (6 h): 0.3 mg/dL; TC (6 h): 76 mg/dL; TG (6 h): 36 mg/dL; TP (6 h): 5.3 g/dL; gamma-GTP (6 h): 1.2 IU/L; TERMINAL_BW (9 h): 179.4 g; APTT (9 h): 16.9 s; Bas (9 h): 0%; Eos (9 h): 0.6%; Fbg (9 h): 211.6 mg/dL; Hb (9 h): 13.3 g/dL; Ht (9 h): 40.3%; Lym (9 h): 78%; MCH (9 h): 21.7 pg; MCHC (9 h): 33%; MCV (9 h): 65.7 fL; Mono (9 h): 6.2%; Neu (9 h): 15.4%; PT (9 h): 12.8 s; Plat (9 h): 98.9 x10_4/uL; RBC (9 h): 613.2 x10_4/ul; Ret (9 h): 9.1%; WBC (9 h): 72 x10_2/uL; KIDNEY_L (9 h): 0.9 g; KIDNEY_R (9 h): 0.9 g; KIDNEY_TOTAL (9 h): 1.8 g; LIVER (9 h): 7.5 g; A/G (9 h): 2.3; ALP (9 h): 844.2 IU/L; ALT (9 h): 32.6 IU/L; AST (9 h): 64.2 IU/L; BUN (9 h): 10.6 mg/dL; CRE (9 h): 0.4 mg/dL; Ca (9 h): 10.4 mg/dL; Cl (9 h): 106.2 meq/L; DBIL (9 h): 0.024 mg/dL; GLC (9 h): 176.4 mg/dL; IP (9 h): 10.6 mg/dL; K (9 h): 5.3 meq/L; LDH (9 h): 81.2 IU/L; Na (9 h): 138.8 meq/L; PL (9 h): 123.6 mg/dL; RALB (9 h): 3.8 g/dL; TBIL (9 h): 0.3 mg/dL; TC (9 h): 71.2 mg/dL; TG (9 h): 23.6 mg/dL; TP (9 h): 5.5 g/dL; gamma-GTP (9 h): 1.4 IU/L; TERMINAL_BW (24 h): 200.1 g; APTT (24 h): 16.6 s; Bas (24 h): 0%; Eos (24 h): 0.8%; Fbg (24 h): 205.2 mg/dL; Hb (24 h): 13.2 g/dL; Ht (24 h): 39.7%; Lym (24 h): 76.6%; MCH (24 h): 22.1 pg; MCHC (24 h): 33.2%; MCV (24 h): 66.7 fL; Mono (24 h): 8.2%; Neu (24 h): 14.8%; PT (24 h): 11.9 s; Plat (24 h): 112.5 x10_4/uL; RBC (24 h): 596.4 x10_4/ul; Ret (24 h): 9.8%; WBC (24 h): 81.9 x10_2/uL; KIDNEY_L (24 h): 0.9 g; KIDNEY_R (24 h): 0.9 g; KIDNEY_TOTAL (24 h): 1.8 g; LIVER (24 h): 10.2 g; A/G (24 h): 2.3; ALP (24 h): 1007 IU/L; ALT (24 h): 45.4 IU/L; AST (24 h): 76.6 IU/L; BUN (24 h): 17.4 mg/dL; CRE (24 h): 0.5 mg/dL; Ca (24 h): 11.1 mg/dL; Cl (24 h): 105.2 meq/L; DBIL (24 h): 0.008 mg/dL; GLC (24 h): 188.6 mg/dL; IP (24 h): 9 mg/dL; K (24 h): 4.9 meq/L; LDH (24 h): 87.6 IU/L; Na (24 h): 140.2 meq/L; PL (24 h): 155 mg/dL; RALB (24 h): 3.9 g/dL; TBIL (24 h): 0.4 mg/dL; TC (24 h): 84.2 mg/dL; TG (24 h): 69.2 mg/dL; TP (24 h): 5.7 g/dL; gamma-GTP (24 h): 0.8 IU/L

— ChEMBL document CHEMBL3885861, “Open TG-GATES”
